From patent US9738634B2, “Heterocyclic amide compound and herbicide” (SYNGENTA PARTICIPATIONS AG, priority 2013, dated 2017)

Tests used:
Type in all cases: in vivo
Settings in all cases: treatment dosage 320 g/ha
catchweed [1] = assay: Test Example 3: weedkilling efficacy through soil treatment; O: catchweed
Method in brief: (§1)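 Crop and weed responses were judged three weeks after a uniform surface spray of the water-diluted emulsion at the given g/ha rate. Seeds sat beneath about 1.5 cm of sterilized diluvial soil, and boxes stood in a greenhouse at 25 to 30° C.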

chickweed [2] = assay: Test Example 4: weedkilling efficacy by foliar treatment; N: chickweed
Method in brief: (§2)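 Seeds are spot-sown into sterilized diluvial soil and covered with about 1.5 cm of soil. After 14 days' greenhouse growth at 25 to 30° C, plants are sprayed on stems and leaves with diluted emulsion at the stated g/ha rate, then scored at 3 weeks.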

barnyard grass [3] = assay: Test Example 1: weedkilling efficacy, preemergent weed treatment in the submerged state; A: barnyard grass
Method in brief: (§3)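 Submerged pre-emergence treatment, water-surface application of compound emulsion at g/ha dosages; 4 cm flooded alluvial soil, weeds sown and 2.5-leaf rice transplanted same day. Rated after 3 weeks, greenhouse.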

redroot pigweed [4] = assay: Test Example 3: weedkilling efficacy through soil treatment; L: redroot pigweed
Method in brief: as §1

black-grass [5] = assay: Test Example 3: weedkilling efficacy through soil treatment; H: black-grass
Method in brief: as §1

soybean [6] = assay: Test Example 3: soil treatment, effect on crop; d: soybean
Method in brief: as §1

barnyard grass [7] = assay: Test Example 3: weedkilling efficacy through soil treatment; F: barnyard grass
Method in brief: as §1

black-grass [8] = assay: Test Example 4: weedkilling efficacy by foliar treatment; H: black-grass
Method in brief: as §2

transplanted rice = assay: Test Example 1: preemergent weed treatment in the submerged state, effect on crop; a: transplanted rice
Method in brief: as §3

soybean [9] = assay: Test Example 4: foliar treatment, effect on crop; d: soybean
Method in brief: as §2

directly sown rice [10] = assay: Test Example 4: foliar treatment, effect on crop; b: directly sown rice
Method in brief: as §2

catchweed [11] = assay: Test Example 4: weedkilling efficacy by foliar treatment; O: catchweed
Method in brief: as §2

oval-leafed pondweed [12] = assay: Test Example 1: weedkilling efficacy, preemergent weed treatment in the submerged state; C: oval-leafed pondweed
Method in brief: as §3

crabgrass [13] = assay: Test Example 4: weedkilling efficacy by foliar treatment; D: crabgrass
Method in brief: as §2

common wind-grass [14] = assay: Test Example 4: weedkilling efficacy by foliar treatment; J: common wind-grass
Method in brief: as §2

green foxtail [15] = assay: Test Example 4: weedkilling efficacy by foliar treatment; E: green foxtail
Method in brief: as §2

corn [16] = assay: Test Example 4: foliar treatment, effect on crop; c: corn
Method in brief: as §2

wheat [17] = assay: Test Example 4: foliar treatment, effect on crop; e: wheat
Method in brief: as §2

corn [18] = assay: Test Example 3: soil treatment, effect on crop; c: corn
Method in brief: as §1

wild oat [19] = assay: Test Example 4: weedkilling efficacy by foliar treatment; G: wild oat
Method in brief: as §2

Indian mallow [20] = assay: Test Example 3: weedkilling efficacy through soil treatment; K: Indian mallow
Method in brief: as §1

barnyard grass [21] = assay: Test Example 4: weedkilling efficacy by foliar treatment; F: barnyard grass
Method in brief: as §2

beet [22] = assay: Test Example 4: foliar treatment, effect on crop; f: beet
Method in brief: as §2

oval-leafed pondweed [23] = assay: Test Example 2: weedkilling efficacy, growth period weed treatment in the submerged state; C: oval-leafed pondweed
Method in brief: (§4)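 Seedlings at 1-2 leaves in 4 cm-deep submerged alluvial soil received emulsion formulations on the water surface, dosed per hectare; effects were judged 3 weeks on.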

beet [24] = assay: Test Example 3: soil treatment, effect on crop; f: beet
Method in brief: as §1

barnyard grass [25] = assay: Test Example 2: weedkilling efficacy, growth period weed treatment in the submerged state; A: barnyard grass
Method in brief: as §4

wheat [26] = assay: Test Example 3: soil treatment, effect on crop; e: wheat
Method in brief: as §1

redroot pigweed [27] = assay: Test Example 4: weedkilling efficacy by foliar treatment; L: redroot pigweed
Method in brief: as §2

Italian ryegrass [28] = assay: Test Example 4: weedkilling efficacy by foliar treatment; I: Italian ryegrass
Method in brief: as §2

green foxtail [29] = assay: Test Example 3: weedkilling efficacy through soil treatment; E: green foxtail
Method in brief: as §1

Indian mallow [30] = assay: Test Example 4: weedkilling efficacy by foliar treatment; K: Indian mallow
Method in brief: as §2

Italian ryegrass [31] = assay: Test Example 3: weedkilling efficacy through soil treatment; I: Italian ryegrass
Method in brief: as §1

chickweed [32] = assay: Test Example 3: weedkilling efficacy through soil treatment; N: chickweed
Method in brief: as §1

fig-leafed goosefoot [33] = assay: Test Example 3: weedkilling efficacy through soil treatment; M: fig-leafed goosefoot
Method in brief: as §1

bulrush [34] = assay: Test Example 1: weedkilling efficacy, preemergent weed treatment in the submerged state; B: bulrush
Method in brief: as §3

rapeseed [35] = assay: Test Example 4: foliar treatment, effect on crop; g: rapeseed
Method in brief: as §2

crabgrass [36] = assay: Test Example 3: weedkilling efficacy through soil treatment; D: crabgrass
Method in brief: as §1

birds-eye speedwell = assay: Test Example 3: weedkilling efficacy through soil treatment; p: birds-eye speedwell
Method in brief: as §1

directly sown rice [37] = assay: Test Example 3: soil treatment, effect on crop; b: directly sown rice
Method in brief: as §1

wild oat [38] = assay: Test Example 3: weedkilling efficacy through soil treatment; G: wild oat
Method in brief: as §1

bulrush [39] = assay: Test Example 2: weedkilling efficacy, growth period weed treatment in the submerged state; B: bulrush
Method in brief: as §4

fig-leafed goosefoot [40] = assay: Test Example 4: weedkilling efficacy by foliar treatment; M: fig-leafed goosefoot
Method in brief: as §2

common wind-grass [41] = assay: Test Example 3: weedkilling efficacy through soil treatment; J: common wind-grass
Method in brief: as §1

rapeseed [42] = assay: Test Example 3: soil treatment, effect on crop; g: rapeseed
Method in brief: as §1

CC1=C(c2ccccc2)C(=O)N(C(C)(C)C(=O)Nc2ncccc2F)CO1 [B-2-24]
O (catchweed) weedkilling efficacy grade (catchweed [1]): 0 (weed kill ratio 5% or less (practically no effect)) | N (chickweed) weedkilling efficacy grade (chickweed [2]): 2 (weed kill ratio 20% or more, less than 40%) | A (barnyard grass) weedkilling efficacy grade (barnyard grass [3]): 2 (weed kill ratio 20% or more, less than 40%) | L (redroot pigweed) weedkilling efficacy grade (redroot pigweed [4]): 0 (weed kill ratio 5% or less (practically no effect)) | H (black-grass) weedkilling efficacy grade (black-grass [5]): 0 (weed kill ratio 5% or less (practically no effect)) | d (soybean) effect on crop grade (soybean [6]): 0 (weed kill ratio 5% or less (practically no effect)) | F (barnyard grass) weedkilling efficacy grade (barnyard grass [7]): 3 (weed kill ratio 40% or more, less than 70%) | H (black-grass) weedkilling efficacy grade (black-grass [8]): 0 (weed kill ratio 5% or less (practically no effect)) | a (transplanted rice) effect on crop grade (transplanted rice): 0 (weed kill ratio 5% or less (practically no effect)) | d (soybean) effect on crop grade (soybean [9]): 0 (weed kill ratio 5% or less (practically no effect)) | b (directly sown rice) effect on crop grade (directly sown rice [10]): 0 (weed kill ratio 5% or less (practically no effect)) | O (catchweed) weedkilling efficacy grade (catchweed [11]): 3 (weed kill ratio 40% or more, less than 70%) | C (oval-leafed pondweed) weedkilling efficacy grade (oval-leafed pondweed [12]): 3 (weed kill ratio 40% or more, less than 70%) | D (crabgrass) weedkilling efficacy grade (crabgrass [13]): 0 (weed kill ratio 5% or less (practically no effect)) | J (common wind-grass) weedkilling efficacy grade (common wind-grass [14]): 1 (weed kill ratio 5% or more, less than 20%) | E (green foxtail) weedkilling efficacy grade (green foxtail [15]): 1 (weed kill ratio 5% or more, less than 20%) | c (corn) effect on crop grade (corn [16]): 0 (weed kill ratio 5% or less (practically no effect)) | e (wheat) effect on crop grade (wheat [17]): 0 (weed kill ratio 5% or less (practically no effect)) | c (corn) effect on crop grade (corn [18]): 0 (weed kill ratio 5% or less (practically no effect)) | G (wild oat) weedkilling efficacy grade (wild oat [19]): 0 (weed kill ratio 5% or less (practically no effect)) | K (Indian mallow) weedkilling efficacy grade (Indian mallow [20]): 0 (weed kill ratio 5% or less (practically no effect)) | F (barnyard grass) weedkilling efficacy grade (barnyard grass [21]): 0 (weed kill ratio 5% or less (practically no effect)) | f (beet) effect on crop grade (beet [22]): 0 (weed kill ratio 5% or less (practically no effect)) | C (oval-leafed pondweed) weedkilling efficacy grade (oval-leafed pondweed [23]): 3 (weed kill ratio 40% or more, less than 70%) | f (beet) effect on crop grade (beet [24]): 0 (weed kill ratio 5% or less (practically no effect)) | A (barnyard grass) weedkilling efficacy grade (barnyard grass [25]): 1 (weed kill ratio 5% or more, less than 20%) | e (wheat) effect on crop grade (wheat [26]): 0 (weed kill ratio 5% or less (practically no effect)) | L (redroot pigweed) weedkilling efficacy grade (redroot pigweed [27]): 0 (weed kill ratio 5% or less (practically no effect)) | I (Italian ryegrass) weedkilling efficacy grade (Italian ryegrass [28]): 0 (weed kill ratio 5% or less (practically no effect)) | E (green foxtail) weedkilling efficacy grade (green foxtail [29]): 3 (weed kill ratio 40% or more, less than 70%) | K (Indian mallow) weedkilling efficacy grade (Indian mallow [30]): 0 (weed kill ratio 5% or less (practically no effect)) | I (Italian ryegrass) weedkilling efficacy grade (Italian ryegrass [31]): 0 (weed kill ratio 5% or less (practically no effect)) | N (chickweed) weedkilling efficacy grade (chickweed [32]): 3 (weed kill ratio 40% or more, less than 70%) | M (fig-leafed goosefoot) weedkilling efficacy grade (fig-leafed goosefoot [33]): 0 (weed kill ratio 5% or less (practically no effect)) | B (bulrush) weedkilling efficacy grade (bulrush [34]): 5 (weed kill ratio 90% or more, (practically complete withering)) | g (rapeseed) effect on crop grade (rapeseed [35]): 0 (weed kill ratio 5% or less (practically no effect)) | D (crabgrass) weedkilling efficacy grade (crabgrass [36]): 3 (weed kill ratio 40% or more, less than 70%) | P (birds-eye speedwell) weedkilling efficacy grade (birds-eye speedwell): 0 (weed kill ratio 5% or less (practically no effect)) | b (directly sown rice) effect on crop grade (directly sown rice [37]): 0 (weed kill ratio 5% or less (practically no effect)) | G (wild oat) weedkilling efficacy grade (wild oat [38]): 0 (weed kill ratio 5% or less (practically no effect)) | B (bulrush) weedkilling efficacy grade (bulrush [39]): 4 (weed kill ratio 70% or more, less than 90%) | M (fig-leafed goosefoot) weedkilling efficacy grade (fig-leafed goosefoot [40]): 4 (weed kill ratio 70% or more, less than 90%) | J (common wind-grass) weedkilling efficacy grade (common wind-grass [41]): 3 (weed kill ratio 40% or more, less than 70%) | g (rapeseed) effect on crop grade (rapeseed [42]): 0 (weed kill ratio 5% or less (practically no effect))
